Measurements as given in ChEMBL document CHEMBL5113555, “Potent PROTACs Targeting EGFR Mutants in Drug Discovery” (ACS Med Chem Lett, 2022).

Legend:
[1] = system: Protein cereblon/Epidermal growth factor receptor (Homo sapiens), P00533+Q96SW2 [UNDEFINED MUTATION]; test: Protac activity at E3 ubiquitin ligase/EGFR Del19/[…]/C797S mutant assessed as E3 ubiquitin ligase mediated EGFR degradation in human NCI-H1975 cells expressing Del19/[…]/C797S mutant in clone 28 after 16 hrs by HTRF assay relative to control; format: cell-based
Protein cereblon/Epidermal growth factor receptor (Homo sapiens), P00533+Q96SW2 [UNDEFINED MUTATION], sequence (P00533 whole entry, looked up, stated change not applied): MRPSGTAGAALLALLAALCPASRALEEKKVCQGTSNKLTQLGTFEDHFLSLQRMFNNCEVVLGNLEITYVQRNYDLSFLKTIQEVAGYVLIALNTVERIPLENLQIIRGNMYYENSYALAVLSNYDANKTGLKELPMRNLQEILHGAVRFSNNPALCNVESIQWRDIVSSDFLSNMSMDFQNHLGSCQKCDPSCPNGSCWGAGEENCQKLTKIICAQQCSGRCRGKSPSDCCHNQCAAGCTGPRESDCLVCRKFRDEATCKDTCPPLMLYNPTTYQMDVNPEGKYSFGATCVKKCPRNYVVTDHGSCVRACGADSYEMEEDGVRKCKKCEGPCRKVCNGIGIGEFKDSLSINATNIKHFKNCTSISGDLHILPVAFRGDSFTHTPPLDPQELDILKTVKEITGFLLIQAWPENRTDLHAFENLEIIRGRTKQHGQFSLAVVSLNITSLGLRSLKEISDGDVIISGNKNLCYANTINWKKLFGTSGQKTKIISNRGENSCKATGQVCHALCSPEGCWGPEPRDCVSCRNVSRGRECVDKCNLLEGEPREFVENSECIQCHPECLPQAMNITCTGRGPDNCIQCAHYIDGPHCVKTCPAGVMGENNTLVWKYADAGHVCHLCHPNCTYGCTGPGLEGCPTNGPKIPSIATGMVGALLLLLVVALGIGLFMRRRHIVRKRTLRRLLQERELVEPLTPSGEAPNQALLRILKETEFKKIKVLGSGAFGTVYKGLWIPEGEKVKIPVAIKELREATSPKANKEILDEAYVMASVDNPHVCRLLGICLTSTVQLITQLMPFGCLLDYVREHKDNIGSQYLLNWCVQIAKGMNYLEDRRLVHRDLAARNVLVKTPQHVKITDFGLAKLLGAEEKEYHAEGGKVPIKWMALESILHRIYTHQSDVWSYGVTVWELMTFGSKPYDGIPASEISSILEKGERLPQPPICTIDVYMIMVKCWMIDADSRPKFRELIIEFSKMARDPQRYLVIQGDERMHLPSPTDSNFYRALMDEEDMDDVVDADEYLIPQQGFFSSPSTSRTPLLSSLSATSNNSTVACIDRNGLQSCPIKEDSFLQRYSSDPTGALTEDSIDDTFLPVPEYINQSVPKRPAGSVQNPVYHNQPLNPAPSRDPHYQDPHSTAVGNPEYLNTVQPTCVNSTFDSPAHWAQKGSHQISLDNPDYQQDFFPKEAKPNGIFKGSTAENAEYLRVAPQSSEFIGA
Protein cereblon/Epidermal growth factor receptor (Homo sapiens), P00533+Q96SW2 [UNDEFINED MUTATION], sequence (Q96SW2 whole entry, looked up, stated change not applied): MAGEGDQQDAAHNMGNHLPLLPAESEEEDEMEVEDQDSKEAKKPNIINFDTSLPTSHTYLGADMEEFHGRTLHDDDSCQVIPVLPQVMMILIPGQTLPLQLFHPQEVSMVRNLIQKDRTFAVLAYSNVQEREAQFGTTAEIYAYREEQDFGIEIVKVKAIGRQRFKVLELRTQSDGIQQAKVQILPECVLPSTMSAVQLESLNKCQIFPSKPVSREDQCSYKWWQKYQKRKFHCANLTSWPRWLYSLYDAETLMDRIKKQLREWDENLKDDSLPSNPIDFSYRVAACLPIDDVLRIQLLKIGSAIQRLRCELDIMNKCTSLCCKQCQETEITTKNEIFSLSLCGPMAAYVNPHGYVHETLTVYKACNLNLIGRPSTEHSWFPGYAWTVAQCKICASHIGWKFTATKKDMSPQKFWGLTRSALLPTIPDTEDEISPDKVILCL

[2] = biological target: Protein cereblon/Epidermal growth factor receptor (Homo sapiens, UniProt P00533+Q96SW2); test: Protac activity at E3 ubiquitin ligase/EGFR Del19/[…]/C797S mutant assessed as E3 ubiquitin ligase mediated EGFR degradation in human NCI-H1975 cells expressing Del19/[…]/C797S mutant in clone 28 after 16 hrs by HTRF assay; format: cell-based
Protein cereblon/Epidermal growth factor receptor, sequence (P00533 whole entry, looked up, stated change not applied): as the sequence (P00533 whole entry, looked up, stated change not applied) above
Protein cereblon/Epidermal growth factor receptor, sequence (Q96SW2 whole entry, looked up, stated change not applied): as the sequence (Q96SW2 whole entry, looked up, stated change not applied) above

| Structure (SMILES) | Emax [1] [%] | DC50 [2] [nM] |
| --- | --- | --- |
| CCc1cc(Nc2ncc(Br)c(Nc3cnc4ccccc4c3P(C)(C)=O)n2)c(OC)cc1N1CCC(N2CCN(CCc3ccc4c(oc(=O)n4C4CCC(=O)NC4=O)c3F)CC2)CC1 (centres undefined) | 81 | 900 |
| CCc1cc(Nc2ncc(Br)c(Nc3cnc4ccccc4c3P(C)(C)=O)n2)c(OC)cc1N1CCC(N2CCN(CCc3cccc4c3n(C3CC3)c(=O)n4C3CCC(=O)NC3=O)CC2)CC1 (centres undefined) | 85 | 700 |
| CCc1cc(Nc2ncc(Br)c(Nc3cnc4ccccc4c3P(C)(C)=O)n2)c(OC)cc1N1CCC(N2CCN(CCc3cccc4c3n(CC)c(=O)n4C3CCC(=O)NC3=O)CC2)CC1 (centres undefined) | 83 | 900 |
| CCOc1cc(N2CCC(N3CCN(CCc4cc(F)c(F)c5c4oc(=O)n5C4CCC(=O)NC4=O)CC3)CC2)c(CC)cc1Nc1ncc(Br)c(Nc2cnc3ccccc3c2P(C)(C)=O)n1 (centres undefined) | 81 | 600 |
| CCOc1cc(N2CCC(N3CCN(CCc4cccc5c4n(C)c(=O)n5C4CCC(=O)NC4=O)CC3)CC2)c(CC)cc1Nc1ncc(Br)c(Nc2cnc3cc(F)ccc3c2P(C)(C)=O)n1 (centres undefined) | 84 | 400 |
| CCc1cc(Nc2ncc(Br)c(Nc3cnc4ccccc4c3P(C)(C)=O)n2)c(OC)cc1N1CCC(N2CCN(CCc3ccc(F)c4c3n(C)c(=O)n4C3CCC(=O)NC3=O)CC2)CC1 (centres undefined) | 86 | 1000 |
| CCOc1cc(N2CCC(N3CCN(CCc4cccc5c4n(C)c(=O)n5C4CCC(=O)NC4=O)CC3)CC2)c(CC)cc1Nc1ncc(Br)c(Nc2cnc3ccccc3c2P(C)(C)=O)n1 (centres undefined) | 84 | 4400 |
